{"source": "patent US20140335083A1", "about": "“METHODS OF TREATMENT AND PREVENTION OF EYE DISEASES” (GLAXO GROUP LIMITED, priority 2011, published 2014)", "key": {"Cynomolgus monkey CCR3": {"molecular_target": "T1, Cynomolgus monkey CCR3 (Macaca fascicularis, UniProt Q9BDS8)", "T1 construct": "from tissue; host or cells: Cynomolgus monkey whole blood (eosinophils)", "T1 sequence (Q9BDS8 1-355)": "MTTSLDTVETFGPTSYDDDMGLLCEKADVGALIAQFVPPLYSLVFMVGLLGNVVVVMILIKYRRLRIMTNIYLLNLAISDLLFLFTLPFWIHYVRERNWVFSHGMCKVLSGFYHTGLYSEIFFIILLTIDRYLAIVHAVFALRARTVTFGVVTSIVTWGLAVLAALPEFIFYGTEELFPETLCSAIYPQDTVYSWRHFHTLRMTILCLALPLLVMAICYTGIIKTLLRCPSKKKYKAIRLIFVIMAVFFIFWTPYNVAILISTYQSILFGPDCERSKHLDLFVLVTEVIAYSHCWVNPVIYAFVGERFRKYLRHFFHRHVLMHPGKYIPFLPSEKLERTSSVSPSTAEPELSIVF", "experiment": "Cynomolgus monkey whole blood eotaxin-stimulated eosinophil shape change assay", "type": "cell-based", "method": "Blood (10 mL) was taken from Cynomolgus monkeys and 1.1 ml of 3.8% sodium citrate solution added. Aliquots (90 μl) were incubated with antagonist at room temperature for 10 minutes then transferred to BSA-coated micronic tubes containing agonist (10 μl human eotaxin (Peprotech) Eotaxin was present at final concentrations between 0 and 1000 nM. The cells were incubated at 37° C. for a further 4 minutes before addition of […] of ice-cold fixation buffer (a ¼ dilution of 1x Cellfix (Becton Dickinson)). After a minimum of 2 minutes the fixed samples were transferred into 2 ml of ice cold erythrocyte lysis buffer (155 mM NH4Cl, 10 mM KHCO3) and incubated on ice until lysis was complete (˜30 minutes). The mean forward scatter of the eosinophil population was then determined on a FACScalibur flow cytometer.\nThe concentration response curve of eotaxin-1 on eosinophil shape change in Cynomolgus whole blood and the effect of pre-incubation of 10 nM and 100 nM the '415 compound is shown in FIG. 11."}, "[1]": {"molecular_target": "T2, Cynomolgus whole blood CCR3 (Macaca fascicularis, UniProt Q9BDS8)", "T2 construct": "from tissue; host or cells: Cynomolgus monkey whole blood (eosinophils)", "T2 sequence (Q9BDS8 1-355)": "T1 sequence (Q9BDS8 1-355)", "experiment": "Fractional receptor occupancy at trough in Cynomolgus monkey", "type": "in vivo", "details": "at trough (8 hours); both 9 mg/kg/day and 60 mg/kg/day, TID"}, "[2]": {"tested_on": "laser-induced CNV in Cynomolgus monkey", "experiment": "Laser-induced choroidal neovascular AMD study in the Cynomolgus monkey, Grade IV lesions", "type": "in vivo", "method": "Cynomolgus monkeys were dosed with vehicle or the CCR3 antagonist tool compound the '415 compound as shown in Table A for 29 days with laser occurring […]. […]\nThe macula of each eye underwent laser treatment with a 532-nm diode green laser burns (OcuLight GL, IRIDEX Corp Inc, Mountain View, Calif.) using a slit lamp delivery system and a Kaufman-Wallow (Ocular Instruments Inc, Bellevue, Wash.) plano fundus contact lens. Animals were anesthetized and nine areas symmetrically placed in the macula of each eye. The laser parameters included a 75-micron spot size and 0.1-second duration. The power setting used was assessed by the ability to produce a blister and a small haemorrhage. Unless haemorrhage is observed with the first laser treatment, a second laser spot will be placed adjacent to the first following the same laser procedure (except the wattage would be adjusted). For areas not adjacent to the fovea, the initial power setting was 500 mW; if a second spot is placed, the power was set to 650 mW. For the area adjacent to the fovea, the power settings was 400 mW (initial treatment) and 550 mW (second treatment). […]\nAnimals were fasted before fluorescein angiography for at least 2 hours prior to being anesthetized and the eyes dilated with a mydriatic agent. […] Comparison of the incidence of Grade IV lesions between groups was evaluated."}, "[3]": {"experiment": "Exposure in Cynomolgus monkey", "details": "in vivo"}, "[4]": {"tested_on": "retinal neovascularization in C57BL/6 mice", "experiment": "Oxygen-induced retinopathy, area of retinal neovascularization", "type": "in vivo", "details": "5 ug peri-ocularly every 5 days", "method": "C57BL/6 mice placed in 75% O2 at postnatal day (P) 7 and at P12 were returned to room air and treatment initiated with compound or vehicle. At P17, the area of retinal NV on the surface of the retina was measured as described previously (Shen et al., 2007). Briefly, P17 mice were given an intraocular injection of 1 μl of rat anti-mouse platelet endothelial cell adhesion molecule-1 (PECAM-1) antibody (Pharmingen, San Jose, Calif., USA); after 12 h, they were euthanized, and eyes were fixed in PBS-buffered formalin for 5 h at room temperature. Retinas were dissected, washed, and incubated with goat-anti rat polyclonal antibody conjugated with Alexa 488 (Invitrogen, Carlsbad, Calif., USA) at 1:500 dilution at room temperature for 45 min and flat mounted. An observer masked with respect to treatment group measured the area of NV per retina by image analysis.\n(see, FIGS. 12 and 13). In systemic experiments both eyes were examined and no significant differences were observed between CCR3 inhibitor '994 and vehicle treated groups. In topical experiments no significant differences were noted between CCR3 inhibitor '994 and vehicle groups nor treated and fellow eye in the CCR3 inhibitor '994 treated group. […] Consequently SU4312 acts similarly on retinal neovascularization to that of an alternative receptor tyrosine kinase inhibitor pazopanib which was effective in limiting choroidal neovascularization."}, "[5]": {"tested_on": "laser-induced model of CNV AMD", "details": "oral dosing; Mizutani et al., 2011; cited from earlier work"}}, "note": "Where two headings read alike, the source gives them in different places."}
{"smiles": "Cn1nnc(CNC(=O)NC[C@H]2CN(Cc3ccc(Cl)c(Cl)c3)CCO2)n1", "note": "[the '415 compound, (S)-1-((4-(3,4-dichlorobenzyl)morpholin-2-yl)methyl)-3-((2-methyl-2H-tetrazol-5-yl)methyl)urea]", "values": [{"measurement": "inhibition of human eotaxin-induced eosinophil shape change", "setting": "Cynomolgus monkey CCR3; Cynomolgus whole blood", "result": "concentration-dependent, surmountable inhibition"}, {"measurement": "Kb", "setting": "Cynomolgus monkey CCR3; depending on experiment, read-out: pA2, potency against Cynomolgus monkey CCR3 (converted)", "result": "10 to 100", "unit": "nM"}, {"measurement": "Kb", "setting": "Cynomolgus monkey CCR3; eotaxin-1 stimulated eosinophil shape change in Cynomolgus whole blood, read-out: mean pA2 (Schild analysis) (converted)", "result": 15.8, "unit": "nM"}, {"measurement": "fractional receptor occupancy", "setting": "[1]", "result": "> 95", "unit": "%"}, {"measurement": "effect on the generation of grade IV lesions", "setting": "[2]; 20 mg/kg TID po, fluorescence angiography at 16, 24 and 30 days post-laser", "result": "statistically robust effect"}, {"measurement": "effect on the number of grade IV lesions", "setting": "[2]; lower dose (3 mg/kg TID po)", "result": "not statistically different from controls"}, {"measurement": "exposure in Cynomolgus monkey", "setting": "[3]", "result": "reasonable exposure in this primate with low inter-animal variability"}]}
{"smiles": "CN(C)c1ccc(/C=C2\\C(=O)Nc3ccccc32)cc1", "note": "[SU4312]", "values": [{"measurement": "effect on retinal neovascularization", "setting": "[4]", "result": "effective inhibitor"}, {"measurement": "p, reduction in retinal neovascularization, treated versus fellow (non-treated) eyes", "setting": "[4]", "result": "< 0.004"}, {"measurement": "p, reduction in retinal neovascularization, treated versus vehicle treated eyes", "setting": "[4]", "result": "< 0.003"}]}
{"smiles": "Cc1ccc[n+]([O-])c1C(=O)N1CCC(=CC(=O)NC2CCN(Cc3ccc4cc(F)ccc4c3)C2)CC1", "note": "(centres unmarked) [YM-344031]", "values": [{"measurement": "efficacy in a laser-induced model of CNV AMD", "setting": "[5]", "result": "effective"}]}
